Results: patent US20150231198A1 (priority 2014, published 2015)

Tests used:
[1] = test system: Jurkat; assay: cells; format: cell-based; settings: Homo sapiens, 48 h, read-out: IC50 (concentration that inhibits viability by 50%)
[2] = test system: HD-MAR2; assay: cells; format: cell-based; settings: 48 h, read-out: IC50 (concentration that inhibits viability by 50%)
[3] = test system: Karpas 299; assay: cells; format: cell-based; settings: Homo sapiens, KARPAS-299, 48 h, read-out: IC50 (concentration that inhibits viability by 50%)
[4] = test system: Sup-T1; assay: cells; format: cell-based; settings: Homo sapiens, SUP-T1, 48 h, read-out: IC50 (concentration that inhibits viability by 50%)
[5] = test system: HH; assay: cells; format: cell-based
[6] = test system: Karpas 299 cell line; assay: Flow cytometry apoptosis (Annexin V-FITC/PI), Karpas 299; format: cell-based
[7] = test system: SUP-T1 cells; assay: Flow cytometry apoptosis (Annexin V-FITC/PI), SUP-T1; format: cell-based; settings: 48 hours
[8] = test system: Primary GFP+ cells from the Itk-Syk transgenic mouse model; assay: Apoptosis and synergy in primary GFP+ cells from Itk-Syk transgenic mouse; format: cell-based; settings: 48 hours
[9] = test system: protein, primarily albumin; settings: cited from earlier work
[10] = after intravenous infusion; cited from earlier work
[11] = water; cited from earlier work
[12] = in vivo; cited from earlier work

Compound	IC50 [1] [nM]	IC50 [2] [nM]	IC50 [3] [nM]	IC50 [4] [nM]	growth inhibition (sensitivity of cell line) ([5]; concentrations as high as 30 μM, 48 hours of exposure)	apoptotic cells ([6]; Karpas 299, bendamustine at 10 μM (IC50-60)) [%]	apoptosis induced, % cells ([7]; SUP-T1, bendamustine alone) [%]	apoptosis induced, % of the cells ([8]; bendamustine alone) [%]	drug bound to protein [9]	half-life (first phase of biphasic elimination) [10] [min]	terminal half-life [10]	solubility [11]	incidence of hair loss (alopecia) [12]	IC50 ([5]; Homo sapiens, 48 h, read-out: IC50 (concentration that inhibits viability by 50%)) [nM]	apoptosis induced, % of the cell population ([6]; Karpas 299, romidepsin alone at 1 nM)	apoptosis induced, % cells ([7]; SUP-T1, romidepsin alone) [%]	apoptosis induced, % of the cells ([8]; romidepsin alone) [%]
Cn1c(CCCC(=O)O)nc2cc(N(CCCl)CCCl)ccc21 [bendamustine]	17800	9330	32000	8880	resistant	35	50	72	More than 95%	6 to 10	approximately 30 minutes	water soluble	low incidence	–	–	–	–
C/C=C1\NC(=O)[C@H]2CSSCC/C=C/[C@H](CC(=O)N[C@H](C(C)C)C(=O)N2)OC(=O)[C@H](C(C)C)NC1=O [romidepsin, (1S,4S,7Z,10S,16E,21R)-7-ethyl idene-4,21-bis(1-methylethyl)-2-oxa-12,13-dithia-5,8,20,23-tetrazabicyclo[8.7.6]tricos-16-ene-3,6,9,19,22-pentone]	0.46	0.33	0.56	0.94	–	–	–	–	–	–	–	–	–	1.68	up to 40%	31	60
